Measurements published in patent publication US10450281B1, “Compounds and methods for treating cancer” (Dana-Farber Cancer Institute, Inc., priority 2014, dated 2019).

What was measured:
[1] = Pharmacokinetics of 019A in mice (FIG. 1); format: in vivo; conditions: IV, IP, or oral (PO) administration
[2] = system: human non-small cell lung cancer (NSCLC) lines; assay: NSCLC cell line viability after 24 h incubation (FIG. 2); format: cell-based
Description: The indicated human non-small cell lung cancer (NSCLC) lines were incubated with the indicated concentrations of the DUB inhibitor (019A) for twenty-four hours, and cell viability was measured. […] The indicated human non-small cell lung cancer (NSCLC) lines were incubated with the indicated concentrations of the DUB inhibitor (019A) for twenty-four hours, and cell viability was measured. […] Specifically, the NSCLC line H1650, which is driven by a constitutively-activated EGFR, was treated with the indicated concentrations of the PAN-DUB inhibitor SJB-019A and/or the kinase inhibitor Gefitinib. After 24 hours, cells were lysed and the total cellular proteins were electrophoresed by standard PAGE methods. Proteins were immunoblotted and probed with commercially available polyclonal antisera to EGFR or Tubulin. Conclusion: the PAN-DUB inhibitor promotes the degradation of the EGFR, at least in part, by inhibition of USP8 which is expressed in these cells. The dose of the inhibitor that reduce the viability of the NSCLC (less than 0.5 μm, see FIG. 2) correlates with the amount of drug required to degrade EGFR (between 0.2-0.5 μm).

[3] = system: EGFR; assay: EGFR degradation immunoblot in NSCLC line H1650 (FIG. 3); format: cell-based, human; conditions: H1650 cells, 24 h
Description: Specifically, the NSCLC line H1650, which is driven by a constitutively-activated EGFR, was treated with the indicated concentrations of the PAN-DUB inhibitor SJB-019A and/or the kinase inhibitor Gefitinib. After 24 hours, cells were lysed and the total cellular proteins were electrophoresed by standard PAGE methods. Proteins were immunoblotted and probed with commercially available polyclonal antisera to EGFR or Tubulin. […] Specifically, the NSCLC line H1650, which is driven by a constitutively-activated EGFR, was treated with the indicated concentrations of the PAN-DUB inhibitor SJB-019A and/or the kinase inhibitor Gefitinib. After 24 hours, cells were lysed and the total cellular proteins were electrophoresed by standard PAGE methods. Proteins were immunoblotted and probed with commercially available polyclonal antisera to EGFR or Tubulin. Conclusion: the PAN-DUB inhibitor promotes the degradation of the EGFR, at least in part, by inhibition of USP8 which is expressed in these cells. The dose of the inhibitor that reduce the viability of the NSCLC (less than 0.5 μm, see FIG. 2) correlates with the amount of drug required to degrade EGFR (between 0.2-0.5 μm).

[4] = system: human prostate cancer cell line; assay: Prostate cancer cell viability after 24 h incubation (FIG. 5, FIG. 7); format: cell-based
Description: A human prostate cancer cell line was incubated with the indicated concentration of DUB inhibitor for 24 hours, and viability was then measured. […] A human prostate cancer cell line was incubated with the indicated concentration of DUB inhibitor for 24 hours, and viability was then measured. […] A human prostate cancer cell line was incubated with the indicated concentration of DUB inhibitor for 24 hours, and viability was then measured.

[5] = system: Cyclin D1; assay: Cyclin D1 degradation immunoblot in prostate cancer cell line (FIG. 6, FIG. 8); format: cell-based, human; conditions: 24 h
Description: (§1) Specifically, a human prostate cancer cell line was exposed to the indicated concentrations of PAN-DUB inhibitor, 019A, for 24 hours. Thereafter, cells were lysed, and total cellular proteins were electrophoresed and immunoblotted. Proteins were probed with anti-USP2, anti-Cyclin D1, and anti-vinculin. […] Specifically, a human prostate cancer cell line was exposed to the indicated concentrations of PAN-DUB inhibitor, 019A, for 24 hours. Thereafter, cells were lysed, and total cellular proteins were electrophoresed and immunoblotted. Proteins were probed with anti-USP2, anti-Cyclin D1, and anti-tubulin. […] Specifically, a human prostate cancer cell line was exposed to the indicated concentrations of PAN-DUB inhibitor, 019A, for 24 hours. Thereafter, cells were lysed, and total cellular proteins were electrophoresed and immunoblotted. Proteins were probed with anti-USP2, anti-Cyclin D1, and anti-Tubulin antibodies or anti-vinculin antibodies. Conclusion: the PAN-DUB inhibitor promotes the dose-dependent degradation of Cyclin D1, consistent with the dose-dependent killing of the cells by the drug. The dose of the inhibitor that reduce the viability of the prostate cancer cells (about 0.5 to 0.8 μm, see FIG. 5 and FIG. 7) correlates with the amount of drug required to degrade cyclin D1 (about 0.5 to 0.8 μm).

[6] = target: T1, USP2a (Homo sapiens, UniProt O75604); assay: USP2a expression immunoblot in prostate cancer cell line (FIG. 6, FIG. 8); format: cell-based; conditions: 24 h
T1 construct: endogenous in cells
T1 sequence (O75604 1-605): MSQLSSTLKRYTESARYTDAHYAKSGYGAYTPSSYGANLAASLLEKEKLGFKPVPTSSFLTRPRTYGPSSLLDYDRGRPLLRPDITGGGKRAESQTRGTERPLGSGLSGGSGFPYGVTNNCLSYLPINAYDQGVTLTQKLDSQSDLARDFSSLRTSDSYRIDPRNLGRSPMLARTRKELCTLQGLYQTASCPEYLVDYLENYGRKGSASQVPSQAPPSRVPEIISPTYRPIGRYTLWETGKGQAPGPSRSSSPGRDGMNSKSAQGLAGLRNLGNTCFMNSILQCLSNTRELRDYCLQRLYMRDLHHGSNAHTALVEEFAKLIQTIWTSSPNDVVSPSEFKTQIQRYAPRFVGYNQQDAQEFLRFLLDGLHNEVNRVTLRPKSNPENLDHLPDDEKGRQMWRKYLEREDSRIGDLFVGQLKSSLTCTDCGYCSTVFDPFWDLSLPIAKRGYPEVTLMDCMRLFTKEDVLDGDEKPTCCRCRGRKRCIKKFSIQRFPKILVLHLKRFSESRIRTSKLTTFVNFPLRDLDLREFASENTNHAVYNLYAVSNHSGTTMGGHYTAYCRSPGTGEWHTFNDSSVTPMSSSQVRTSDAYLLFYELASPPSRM
Description: as §1

[7] = system: AR; assay: AR degradation immunoblot in prostate cancer cell line (FIG. 9); format: cell-based, human; conditions: 24 h
Description: (§2) Specifically, a human prostate cancer cell line was exposed to the indicated concentrations of PAN-DUB inhibitor, 019A, for 24 hours. Thereafter, cells were lysed, and total cellular proteins were electrophoresed and immunoblotted. Proteins were probed with anti-USP12, anti-AR, and anti-Tubulin antibodies. […] Specifically, a human prostate cancer cell line was exposed to the indicated concentrations of PAN-DUB inhibitor, 019A, for 24 hours. Thereafter, cells were lysed, and total cellular proteins were electrophoresed and immunoblotted. Proteins were probed with anti-USP12, anti-AR, and anti-Tubulin antibodies. Conclusion: the PAN-DUB inhibitor promotes the dose-dependent degradation of AR, consistent with the dose-dependent killing of the cells by the drug. The dose of the inhibitor that reduce the viability of the prostate cancer cells (about 0.5 to 0.8 μm, see FIG. 5 and FIG. 7) correlates with the amount of drug required to degrade AR (about 0.6 to 0.8 μm).

[8] = target: T2, USP12 (Homo sapiens, UniProt O75317); assay: USP12 protein immunoblot in prostate cancer cell line (FIG. 9); format: cell-based; conditions: 24 h
T2 construct: cells were lysed, and total cellular proteins were electrophoresed and immunoblotted; endogenous in cells
T2 sequence (O75317 whole entry): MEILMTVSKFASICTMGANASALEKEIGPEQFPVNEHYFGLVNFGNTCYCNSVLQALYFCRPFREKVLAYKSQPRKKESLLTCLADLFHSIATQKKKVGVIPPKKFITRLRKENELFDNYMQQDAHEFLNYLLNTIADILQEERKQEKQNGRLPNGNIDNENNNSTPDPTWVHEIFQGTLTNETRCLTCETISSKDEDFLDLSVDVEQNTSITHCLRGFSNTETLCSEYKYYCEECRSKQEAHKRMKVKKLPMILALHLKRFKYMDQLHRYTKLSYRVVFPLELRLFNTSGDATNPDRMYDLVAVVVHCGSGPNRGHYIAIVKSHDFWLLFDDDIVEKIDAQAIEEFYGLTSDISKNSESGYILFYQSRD
T2 sequence (Q8TAF3 whole entry partner): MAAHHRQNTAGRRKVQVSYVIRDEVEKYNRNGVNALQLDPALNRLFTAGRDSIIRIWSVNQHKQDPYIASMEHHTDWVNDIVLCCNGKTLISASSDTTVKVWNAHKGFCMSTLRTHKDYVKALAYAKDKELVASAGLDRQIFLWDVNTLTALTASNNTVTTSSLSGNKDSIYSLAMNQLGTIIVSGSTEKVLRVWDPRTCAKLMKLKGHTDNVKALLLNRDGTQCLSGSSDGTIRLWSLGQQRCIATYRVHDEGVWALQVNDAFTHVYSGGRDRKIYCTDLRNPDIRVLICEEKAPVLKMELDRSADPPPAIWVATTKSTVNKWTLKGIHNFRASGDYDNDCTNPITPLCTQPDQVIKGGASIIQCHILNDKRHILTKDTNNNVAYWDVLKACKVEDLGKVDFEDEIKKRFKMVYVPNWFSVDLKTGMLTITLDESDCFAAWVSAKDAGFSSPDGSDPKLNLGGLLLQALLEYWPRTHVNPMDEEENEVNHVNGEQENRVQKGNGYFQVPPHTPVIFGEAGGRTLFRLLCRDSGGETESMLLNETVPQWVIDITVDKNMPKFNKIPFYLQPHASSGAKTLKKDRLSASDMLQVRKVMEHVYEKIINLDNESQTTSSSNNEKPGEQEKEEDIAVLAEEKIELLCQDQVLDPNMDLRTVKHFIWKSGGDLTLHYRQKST
T2 sequence (Q8TBZ3 whole entry partner): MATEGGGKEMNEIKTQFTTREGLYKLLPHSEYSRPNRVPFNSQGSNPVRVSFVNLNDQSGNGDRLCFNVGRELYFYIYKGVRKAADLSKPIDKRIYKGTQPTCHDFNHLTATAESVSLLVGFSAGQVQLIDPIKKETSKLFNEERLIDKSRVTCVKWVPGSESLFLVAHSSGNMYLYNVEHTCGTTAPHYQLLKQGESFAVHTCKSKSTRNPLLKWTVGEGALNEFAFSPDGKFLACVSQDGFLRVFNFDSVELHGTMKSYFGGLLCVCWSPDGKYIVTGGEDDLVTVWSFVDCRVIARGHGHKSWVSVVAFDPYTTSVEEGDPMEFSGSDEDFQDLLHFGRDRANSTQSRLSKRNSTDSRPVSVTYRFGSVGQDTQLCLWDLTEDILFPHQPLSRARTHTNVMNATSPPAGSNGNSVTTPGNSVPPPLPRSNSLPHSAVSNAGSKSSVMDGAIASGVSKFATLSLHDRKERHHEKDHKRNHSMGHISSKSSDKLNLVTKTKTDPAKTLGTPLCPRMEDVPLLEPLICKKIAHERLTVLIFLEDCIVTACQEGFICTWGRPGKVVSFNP
Description: as §2

[9] = target: T3, USP8 (Homo sapiens, UniProt P40818); assay: Ub-VS labelling gel shift in K562 cell lysate, anti-USP8 western blot (FIG. 4); format: biochemical; conditions: dose dependent
T3 construct: endogenous in cells; host or cells: K562 human leukemia cells (lysate)
T3 sequence (P40818 1-1118): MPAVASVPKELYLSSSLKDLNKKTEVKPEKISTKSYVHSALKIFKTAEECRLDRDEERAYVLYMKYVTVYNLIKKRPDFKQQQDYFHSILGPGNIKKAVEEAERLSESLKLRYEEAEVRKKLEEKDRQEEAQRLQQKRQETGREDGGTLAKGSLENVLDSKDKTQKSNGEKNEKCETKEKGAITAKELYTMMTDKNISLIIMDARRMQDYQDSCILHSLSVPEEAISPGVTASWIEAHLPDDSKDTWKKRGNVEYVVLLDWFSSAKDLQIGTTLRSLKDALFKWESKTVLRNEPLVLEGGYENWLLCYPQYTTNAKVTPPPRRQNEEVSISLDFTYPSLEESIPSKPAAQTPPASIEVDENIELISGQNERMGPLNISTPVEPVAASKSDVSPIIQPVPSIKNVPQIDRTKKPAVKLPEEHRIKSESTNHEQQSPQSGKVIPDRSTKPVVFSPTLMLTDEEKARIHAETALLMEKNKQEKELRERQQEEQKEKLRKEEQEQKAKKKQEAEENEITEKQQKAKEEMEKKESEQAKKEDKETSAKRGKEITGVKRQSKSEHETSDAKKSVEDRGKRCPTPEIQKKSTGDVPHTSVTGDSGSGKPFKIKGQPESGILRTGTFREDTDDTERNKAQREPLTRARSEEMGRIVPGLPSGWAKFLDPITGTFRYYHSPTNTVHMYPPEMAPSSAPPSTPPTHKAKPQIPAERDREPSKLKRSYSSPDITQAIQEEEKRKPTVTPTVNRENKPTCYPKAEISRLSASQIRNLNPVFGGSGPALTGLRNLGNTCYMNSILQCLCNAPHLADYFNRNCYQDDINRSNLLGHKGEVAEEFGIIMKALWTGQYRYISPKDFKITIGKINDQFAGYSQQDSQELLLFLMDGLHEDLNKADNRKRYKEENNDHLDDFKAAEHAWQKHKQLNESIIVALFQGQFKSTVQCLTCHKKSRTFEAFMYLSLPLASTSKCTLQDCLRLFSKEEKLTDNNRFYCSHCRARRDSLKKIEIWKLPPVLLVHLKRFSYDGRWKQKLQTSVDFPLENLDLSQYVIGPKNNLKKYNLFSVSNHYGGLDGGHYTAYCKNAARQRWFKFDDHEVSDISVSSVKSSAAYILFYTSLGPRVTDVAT
Description: (§3) Human leukemia cells (K652 cell line) express USP8, USP1, and other DUBs. In this experiment, K562 cells were lysed, and total cellular proteins were incubated with the affinity reagent, Ub-VS (vinyl sulfone) which covalently binds to active USPs. As indicated, the addition of Ub-VS causes an upward gel shift of active USP8 and active USP1 (lane 2). […] A western blot is shown, immunoblotted with either anti-USP8, anti-USP1, or anti-HA.
as §3, with “anti-HA antibodies.” for “anti-HA.”

[10] = target: T4, USP1 (Homo sapiens, UniProt O94782); assay: Ub-VS labelling gel shift in K562 cell lysate, anti-USP1 western blot (FIG. 4); format: biochemical; conditions: dose dependent
T4 construct: endogenous in cells; host or cells: K562 human leukemia cells (lysate)
T4 sequence (O94782 whole entry): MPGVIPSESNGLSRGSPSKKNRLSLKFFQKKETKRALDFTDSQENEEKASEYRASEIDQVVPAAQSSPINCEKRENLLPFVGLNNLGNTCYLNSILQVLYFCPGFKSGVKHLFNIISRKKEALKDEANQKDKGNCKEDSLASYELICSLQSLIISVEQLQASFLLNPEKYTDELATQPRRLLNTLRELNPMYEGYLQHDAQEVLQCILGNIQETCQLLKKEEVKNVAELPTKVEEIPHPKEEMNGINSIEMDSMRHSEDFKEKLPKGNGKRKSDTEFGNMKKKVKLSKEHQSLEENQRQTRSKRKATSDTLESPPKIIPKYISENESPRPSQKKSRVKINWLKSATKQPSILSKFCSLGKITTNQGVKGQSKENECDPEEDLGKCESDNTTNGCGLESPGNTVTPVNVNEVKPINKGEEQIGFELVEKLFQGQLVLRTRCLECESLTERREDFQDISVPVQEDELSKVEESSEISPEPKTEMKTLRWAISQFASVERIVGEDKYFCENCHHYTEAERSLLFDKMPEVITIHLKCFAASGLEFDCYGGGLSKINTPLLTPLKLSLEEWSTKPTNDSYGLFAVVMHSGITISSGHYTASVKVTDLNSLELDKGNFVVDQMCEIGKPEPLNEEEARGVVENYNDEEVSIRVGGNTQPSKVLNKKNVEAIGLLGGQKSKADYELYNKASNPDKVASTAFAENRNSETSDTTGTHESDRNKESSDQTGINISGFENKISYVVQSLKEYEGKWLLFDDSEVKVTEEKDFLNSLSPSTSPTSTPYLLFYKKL
T4 sequence (Q8TAF3 whole entry partner): as the sequence (Q8TAF3 whole entry partner) above
Description: as §3
as §3, with “anti-HA antibodies.” for “anti-HA.”

Compound	serum concentrations after administration [1]	dose of the inhibitor that reduces the viability of the NSCLC ([2]; 24 h incubation)	selective killing (cytotoxicity) of lung cancer cell lines ([2]; cell lines which express activated EGF-receptor, 24 h)	amount of drug required to degrade EGFR [3]	dose of the inhibitor that reduces the viability of the prostate cancer cells [4]	drug concentration range for killing of prostate cancer cells [4]	amount of drug required to degrade cyclin D1 [5]	effect on USP2a expression [6]	amount of drug required to degrade AR [7]	effect on USP12 protein [8]	inhibition of Ub-VS binding to active USP8 [9]	inhibition of Ub-VS binding to active USP1 [10]
O=C1c2ccccc2C(=O)c2oc(-c3cccnc3)nc21 [019A]	inhibitory serum concentrations of 019A can be achieved	less than 0.5 μm	selective killing (cytotoxicity) for lung cancer cell lines which express activated EGF-receptor	0.2-0.5 μm	0.5 to 0.8 μm	submicromolar range	0.5 to 0.8 μm	does not affect USP2a expression	0.6 to 0.8 μm	degrades USP12 protein	–	–
Ub-aldehyde	–	–	–	–	–	–	–	–	–	–	blocks the upward shift	blocks the upward shift
